Data: ChEMBL document CHEMBL1138308, “Synthesis and antibacterial activity of potent heterocyclic oxazolidinones and the identification of RBx 8700” (2007)
Converted amounts (≈) assume the structure as drawn.

How the values were obtained:
Assay type in all cases: functional
Enterococcus faecalis = assay: Antibacterial activity against Enterococcus faecalis ATCC 29212 after 24 hrs by agar dilution method; settings: ATCC 29212, 24 h
Staphylococcus aureus [1] = assay: Antibacterial activity against methicillin-resistant Staphylococcus aureus 562 infected orally dosed Swiss albino mouse after 7 days; settings: po, 168 h
Staphylococcus aureus [2] = assay: Antibacterial activity against methicillin-resistant Staphylococcus aureus 33 after 24 hrs by agar dilution method
Staphylococcus aureus [3] = assay: Antibacterial activity against methicillin-resistant Staphylococcus aureus 562 after 24 hrs by agar dilution method
Streptococcus pyogenes = assay: Antibacterial activity against Streptococcus pyogenes ATCC 19615 after 24 hrs by agar dilution method; settings: ATCC 19615, 24 h
Enterococcus faecium = assay: Antibacterial activity against vancomycin-resistant Enterococcus faecium 6A after 24 hrs by agar dilution method
Streptococcus pneumoniae = assay: Antibacterial activity against Streptococcus pneumoniae ATCC 6303 after 24 hrs by agar dilution method; settings: ATCC 6303, 24 h
Staphylococcus aureus [4] = assay: Antibacterial activity against Staphylococcus aureus ATCC 25923 after 24 hrs by agar dilution method; settings: ATCC 25923, 24 h
[5] = system: Mycobacterium tuberculosis; assay: Antibacterial activity against sensitive Mycobacterium tuberculosis
Moraxella catarrhalis = assay: Antibacterial activity against Moraxella catarrhalis
Haemophilus influenzae = assay: Antibacterial activity against Haemophilus influenzae
Staphylococcus aureus [6] = assay: Antibacterial activity against methicillin-resistant Staphylococcus aureus 562 infected sc dosed Swiss albino mouse after 7 days; settings: 168 h

Compound	MIC (Enterococcus faecalis) [µg/mL]	ED50 (Staphylococcus aureus [1]) [mg/kg]	MIC (Staphylococcus aureus [2]) [µg/mL]	MIC (Staphylococcus aureus [3]) [µg/mL]	MIC (Streptococcus pyogenes) [µg/mL]	MIC (Enterococcus faecium) [µg/mL]	MIC (Streptococcus pneumoniae) [µg/mL]	MIC (Staphylococcus aureus [4]) [µg/mL]	MIC90 [5] [µg/mL]	MIC50 (Moraxella catarrhalis) [µg/mL]	MIC50 (Haemophilus influenzae) [µg/mL]	ED50 (Staphylococcus aureus [6]) [mg/kg]
CC(=O)NC[C@H]1CN(c2ccc(N3CCN(Cc4ccc([N+](=O)[O-])o4)CC3)c(F)c2)C(=O)O1.Cl [RANBEZOLID CHLORIDE]	2	4.33	2	1	0.125	2	0.125	1				
CC(=O)NC[C@H]1CN(c2ccc(N3CCN(C(=O)/C=C/c4ccc([N+](=O)[O-])o4)CC3)c(F)c2)C(=O)O1	0.5 (≈ 0.997 µM)	> 25	0.25 (≈ 0.499 µM)	0.25 (≈ 0.499 µM)	< 0.125	< 0.125	0.5 (≈ 0.997 µM)	0.5 (≈ 0.997 µM)				
CC(=O)NC[C@H]1CN(c2ccc(N3CCN(C(C)c4ccc([N+](=O)[O-])o4)CC3)c(F)c2)C(=O)O1 (stereo partly drawn)	0.125 (≈ 0.263 µM)	9.1	1 (≈ 2.1 µM)	1 (≈ 2.1 µM)	0.06 (≈ 0.126 µM)	0.25 (≈ 0.526 µM)	1 (≈ 2.1 µM)	1 (≈ 2.1 µM)				
CC(=O)NC[C@H]1CN(c2ccc(N3CCN(C(C)c4ccc([N+](=O)[O-])s4)CC3)c(F)c2)C(=O)O1 (stereo partly drawn)	0.5 (≈ 1.02 µM)	> 25	0.5 (≈ 1.02 µM)	0.5 (≈ 1.02 µM)	2 (≈ 4.07 µM)	0.5 (≈ 1.02 µM)	2 (≈ 4.07 µM)	0.5 (≈ 1.02 µM)				
CC(=O)NC[C@H]1CN(c2ccc(N3CCN(c4ccc(C(C)=O)s4)CC3)c(F)c2)C(=O)O1	> 16		> 16	> 16	> 16	> 16	> 16	> 16				
CC(=O)NC[C@H]1CN(c2ccc(N3CCN(c4ccc([N+](=O)[O-])s4)CC3)c(F)c2)C(=O)O1	0.25 (≈ 0.539 µM)	11.2	0.25 (≈ 0.539 µM)	0.25 (≈ 0.539 µM)	0.125 (≈ 0.27 µM)	0.25 (≈ 0.539 µM)	0.125 (≈ 0.27 µM)	0.25 (≈ 0.539 µM)	0.25 (≈ 0.539 µM)	2 (≈ 4.32 µM)	8 (≈ 17.3 µM)	
CC(=O)NC[C@H]1CN(c2ccc(N3CCN(c4ccc([N+](=O)[O-])o4)CC3)c(F)c2)C(=O)O1	8 (≈ 17.9 µM)		8 (≈ 17.9 µM)	16 (≈ 35.8 µM)	4 (≈ 8.94 µM)	8 (≈ 17.9 µM)	4 (≈ 8.94 µM)	16 (≈ 35.8 µM)				
CC(=O)NC[C@H]1CN(c2ccc(N3CCN(C(=O)c4ccc([N+](=O)[O-])s4)CC3)c(F)c2)C(=O)O1	0.5 (≈ 1.02 µM)	9.77	0.06 (≈ 0.122 µM)	0.06 (≈ 0.122 µM)	0.125 (≈ 0.254 µM)	0.5 (≈ 1.02 µM)	0.5 (≈ 1.02 µM)	0.125 (≈ 0.254 µM)				
CC(=O)NC[C@H]1CN(c2ccc(N3CCN(c4ccc(C=O)s4)CC3)c(F)c2)C(=O)O1	< 0.25	> 25	0.5 (≈ 1.12 µM)	0.5 (≈ 1.12 µM)	0.5 (≈ 1.12 µM)	1 (≈ 2.24 µM)	0.5 (≈ 1.12 µM)	1 (≈ 2.24 µM)				
CC(=O)NC[C@H]1CN(c2cc(F)c(N3CCN(c4ccc([N+](=O)[O-])s4)CC3)c(F)c2)C(=O)O1	0.25 (≈ 0.519 µM)	> 25	0.25 (≈ 0.519 µM)	0.25 (≈ 0.519 µM)	0.5 (≈ 1.04 µM)	0.25 (≈ 0.519 µM)	0.5 (≈ 1.04 µM)	0.25 (≈ 0.519 µM)				
CC(=O)NC[C@H]1CN(c2ccc(N3CCN(c4ccc(C#N)s4)CC3)c(F)c2)C(=O)O1	2 (≈ 4.51 µM)		2 (≈ 4.51 µM)	2 (≈ 4.51 µM)	0.25 (≈ 0.564 µM)		0.5 (≈ 1.13 µM)	4 (≈ 9.02 µM)				
CC(=O)NC[C@H]1CN(c2ccc(N3CCN(c4ccc([N+](=O)[O-])s4)CC3)cc2)C(=O)O1	1 (≈ 2.24 µM)		1 (≈ 2.24 µM)	1 (≈ 2.24 µM)	0.5 (≈ 1.12 µM)	1 (≈ 2.24 µM)	0.5 (≈ 1.12 µM)	2 (≈ 4.49 µM)				
CC(=O)NC[C@H]1CN(c2ccc(N3CCN(C(=O)/C=C/c4ccc([N+](=O)[O-])s4)CC3)c(F)c2)C(=O)O1	1 (≈ 1.93 µM)	> 25	0.5 (≈ 0.966 µM)	1 (≈ 1.93 µM)	0.5 (≈ 0.966 µM)	0.5 (≈ 0.966 µM)	1 (≈ 1.93 µM)	0.5 (≈ 0.966 µM)				
CC(=O)NC[C@H]1CN(c2ccc(N3CCN(C(=O)c4ccc([N+](=O)[O-])o4)CC3)c(F)c2)C(=O)O1	1 (≈ 2.1 µM)	8.24	0.5 (≈ 1.05 µM)		2 (≈ 4.21 µM)	1 (≈ 2.1 µM)	2 (≈ 4.21 µM)	1 (≈ 2.1 µM)				
CC(=O)NC[C@H]1CN(c2ccc(N3CCOCC3)c(F)c2)C(=O)O1 [LINEZOLID]		5.6			2 (≈ 5.93 µM)	2 (≈ 5.93 µM)						
CN[C@H](CC(C)C)C(=O)N[C@H]1C(=O)N[C@@H](CC(N)=O)C(=O)N[C@H]2C(=O)N[C@H]3C(=O)N[C@H](C(=O)N[C@H](C(=O)O)c4cc(O)cc(O)c4-c4cc3ccc4O)[C@H](O)c3ccc(c(Cl)c3)Oc3cc2cc(c3O[C@@H]2O[C@H](CO)[C@@H](O)[C@H](O)[C@H]2O[C@H]2C[C@](C)(N)[C@H](O)[C@H](C)O2)Oc2ccc(cc2Cl)[C@H]1O [VANCOMYCIN]						> 16	0.5 (≈ 0.345 µM)					8.8
CC(=O)NC[C@H]1CN(c2ccc(N3CCN(Cc4ccc([N+](=O)[O-])s4)CC3)c(F)c2)C(=O)O1	8 (≈ 16.8 µM)	> 25	8 (≈ 16.8 µM)	8 (≈ 16.8 µM)	1 (≈ 2.09 µM)	8 (≈ 16.8 µM)	8 (≈ 16.8 µM)	8 (≈ 16.8 µM)				
